Experimental data published in patent US8552018B2, “Substituted tricyclic compounds as protein kinase inhibitors” (Arizona Board of Regents on behalf of the University of …, priority 2003, dated 2013).

Experiments:
aurora-2 kinase = molecular target: T1, aurora-2 kinase (Homo sapiens, UniProt O14965); test: Aurora-2 kinase inhibition assay (Kinase-Glo); assay type: biochemical; settings: aurora-2 kinase, FIG. 11
T1 construct: purchased Imgenex, San Diego, Calif; host or cells: sf9 cells
T1 sequence (O14965 1-403): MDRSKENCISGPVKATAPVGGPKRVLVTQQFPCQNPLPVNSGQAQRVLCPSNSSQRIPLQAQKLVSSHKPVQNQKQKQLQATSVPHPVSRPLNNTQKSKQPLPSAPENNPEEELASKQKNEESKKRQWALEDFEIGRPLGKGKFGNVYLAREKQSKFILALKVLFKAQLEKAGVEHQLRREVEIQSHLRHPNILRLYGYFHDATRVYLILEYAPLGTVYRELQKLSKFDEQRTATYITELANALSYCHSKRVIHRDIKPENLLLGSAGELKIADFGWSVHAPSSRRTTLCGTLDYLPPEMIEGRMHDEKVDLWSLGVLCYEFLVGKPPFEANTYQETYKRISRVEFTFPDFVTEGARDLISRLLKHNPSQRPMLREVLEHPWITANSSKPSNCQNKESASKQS
Procedure: In this assay kinase activity is determined by quantifying the amount of ATP remaining in solution following the kinase reaction by measuring the light units (LU) produced by luciferase using a luminometer. Percent inhibition was determined for individual compounds by comparing luminometer readings of drug-treated reactions to controls containing no drug (DMSO control) and no Aurora-2 enzyme (ATP control) in the following equation: […]
In a 50 μl reaction, recombinant aurora-2 kinase produced in sf9 cells (Imgenex, San Diego, Calif.) was incubated at 30° C. for two hours with 62.5 μM Kemptide (Calbiochem, San Diego, Calif.), 3 μM ATP (Invitrogen, Carlsbad, Calif.) and kinase reaction buffer (40 mM Tris-HCl, 10 mM MgCl2 and 0.1 μg/μl bovine serum albumin (BSA)). This reaction was carried out in the presence of drug substances, which had been previously diluted to desired concentrations in DMSO. After incubation, 50 μl of Kinase-Glo® (Promega, Inc., Madison, Wis.) solution was added to each reaction mixture and allowed to equilibrate for 10 minutes at room temperature. Kinase-Glo solution contains luciferase enzyme and luciferin, which react with ATP to produce light. Kinase activity is determined by quantifying the amount of ATP remaining in solution following the kinase reaction by measuring the light units (LU) produced by luciferase using a luminometer (PerkinElmer, Boston, Mass.).

PANC-1 cells = test: Cancer cell cytotoxicity assay (sulforhodamine B); assay type: cell-based; settings: Homo sapiens, 96 h; PANC-1, 4 days; read-out: IC50 PDGFR PANC-1
Procedure: (§1) To validate the hypothesis that the designed c-kit/PDGFR tyrosine kinase inhibitors mediate GIST882 cell killing and PDGFR-mediated cell killing of pancreatic cancer cell lines (CFPAC-1, PANC-1 and MIA PaCa-2), an in vitro cytotoxicity assay was performed. The GIST882 cell line used in this study has a c-kit gain-of-function mutation (K642E). The assay utilized the Cell Titer 965 Non-Radioactive Cell Proliferation Assay (Promega Corp., Madison, Wis.). First the cells were cultured. GIST882 cells were provided by Dr. Jonathan A. Fletcher (Dana-Farber Cancer Institute, Boston, Mass.). PANC-1 and MIAPaCa-2 cells were provided by Dr. Daniel Von Hoff (Arizona Cancer Center, Tucson, Ariz.). GIST882 cells were cultured in RPMI 1640 medium (Cat #21870-076, Invitrogen Corporation) supplemented with 300 mg/L L-glutamine, 100 unit/ml penicillin, 100 μg/ml streptomycin and 15% fetal bovine serum. PANC-1 and MIAPaCa-2 cells were maintained in RPMI 1640 medium (cat #10-040, Mediatech, Inc.) supplemented with 100 unit/ml penicillin, 100 μg/ml streptomycin and 10% fetal bovine serum. All the cell lines were incubated in a humidified incubator at 37° C. with 5% CO2 atmosphere.
(§2) Cells were plated at a density of 2000 to 10000 cells per well, depending on their growth rate, in 0.1 mL medium on day 0 in 96-well Falcon microtiter plates (#3072, Becton-Dickinson Labware, Lincoln Park, N.J.). On day 1, 10 μL of serial dilutions of the individual compounds were added to the plates in replicates of 4. After incubation for 4 days at 37° C. in a humidified incubator, the cells were fixed with 10% Trichloroacetic acid solution (Catalog No. 490-10, Sigma). Subsequently, they were labeled with 0.04% Sulforhodamine B (S9012, Sigma) in 1% acetic acid. After multiple washes to remove excess dye, 100 μl of 50 mM Tris solution was added to each well in order to dissolve the dye. The absorbance of each well was read on a plate reader (Wallac Vector^2, PerkinElmer) at the wavelength of 570 nm. Data were expressed as the percentage of survival of control calculated from the absorbance corrected for background absorbance. The surviving percent of cells was determined by dividing the mean absorbance values of the […] by the mean absorbance values of the control and multiplying by 100.

MIAPaCa-2 cells = test: Cancer cell cytotoxicity assay (sulforhodamine B); assay type: cell-based; settings: Homo sapiens, MIA PaCa-2, 96 h; MIAPaCa-2, 4 days; read-out: IC50 PDGFR MIAPaCa
Procedure: as §1, §2

GIST882 cell line [1] = test: GIST882 cell growth assay (Cell-Titer-Glo); assay type: cell-based; settings: Homo sapiens; GIST882, 96 hours
Procedure: (§3) Briefly, cells are seeded into 96-well, tissue-culture treated, opaque white plates (Thermo Electron, Vantaa, Finland), at between 5000 and 7500 cells per well, depending on the speed of cell proliferation, in 100 μl of appropriate growth medium (determined by the ATCC). Cells are then exposed to the appropriate concentration of drug or an equal amount of DMSO (drug diluent) and allowed to grow in its presence for 96 hours. Following this, 100 μl of Cell-Titer-Glo reagent (Promega, Inc., Madison, Wis.) is added to each well. Plates are then shaken for 2 minutes at room temperature to allow for cell lysis and incubated for 10 minutes to stabilize the luminescent signal. Similar to the Kinase-Glo assay reagent, this reagent contains both luciferase enzyme and its substrate luciferin. Luciferase, activated by ATP in the cell lysate, catalyzes the conversion of luciferin to oxyluciferin, a reaction which produces light. The amount of light produced is proportionate to the amount of ATP in the cell lysate, which is itself proportional to cell number and gives an index of cellular proliferation.
as §3, with “Various compounds of the invention, including (IV-1-3) (also referred to as HPK16), (III-1-3) (also referred to as HPK56), (III-1-4) (also referred to as HPK57), (III-1-5) (also referred to as HPK59), and (II-2-7) (also referred to as HPK61) were tested for activity against GIST tumor cells using the GIST882 cell line. Briefly,” for “Briefly,”

GIST882 cell line [2] = test: Cancer cell cytotoxicity assay (sulforhodamine B); assay type: cell-based; settings: for IC50: Homo sapiens, 96 h, GIST882, 4 days, read-out: IC50 c-kit GIST882
Procedure: To validate the hypothesis that the designed c-kit/PDGFR tyrosine kinase inhibitors mediate GIST882 cell killing and PDGFR-mediated cell killing of pancreatic cancer cell lines (CFPAC-1, PANC-1 and MIA PaCa-2), an in vitro cytotoxicity assay was performed. The GIST882 cell line used in this study has a c-kit gain-of-function mutation (K642E). […] First the cells were cultured. GIST882 cells were provided by Dr. Jonathan A. Fletcher (Dana-Farber Cancer Institute, Boston, Mass.). PANC-1 and MIAPaCa-2 cells were provided by Dr. Daniel Von Hoff (Arizona Cancer Center, Tucson, Ariz.). […] All the cell lines were incubated in a humidified incubator at 37° C. with 5% CO2 atmosphere.
as §2, with “After” for “Cells were plated at a density of 2000 to 10000 cells per well, depending on their growth rate, in 0.1 mL medium on day 0 in 96-well Falcon microtiter plates (#3072, Becton-Dickinson Labware, Lincoln Park, N.J.). On day 1, 10 μL of serial dilutions of the individual compounds were added to the plates in replicates of 4. After”

metastatic GISTs = settings: 400 mg or 600 mg per day, patients assessed at 1-3 months; cited from earlier work
[3] = system: Akt phosphorylation in NIH 3T3 cells; test: Immunoblot for phospho-Akt (S473); assay type: cell-based; settings: NIH 3T3, 4 hours, agent alone
Procedure: (§4) In order to evaluate these effects at the cellular level, immunoblot analysis was performed on lysates from cells treated with MP470, with or without the addition of the EGFR inhibitor Tarceva®. Lysates were assayed for general tyrosine kinase activity, as well as the specific phosphorylation of c-Met and Akt. Briefly, NIH 3T3 cells were pretreated with drugs as indicated for 4 hours, then treated with pervanadate for a further 30 minutes. Immunoblot detection was carried out with antibodies for phosphotyrosine, phospho-Met and phospho-Akt (S473), as well as total c-Met and Akt. Beta-actin was used as a loading control.

[4] = system: c-Met autophosphorylation in NIH 3T3 cells; test: Immunoblot for phospho-Met; assay type: cell-based; settings: NIH 3T3, 4 hours, agent alone
Procedure: as §4, with “MP-470 (Compound III-1-3) has inhibitory effects on a number of receptor tyrosine kinases. In” for “In”

[5] = system: Akt phosphorylation in LNCaP prostate carcinoma cells; test: Immunoblot for phospho-Akt (S473); assay type: cell-based; settings: 48 hours, agent alone
Procedure: LNCaP prostate carcinoma cells were treated with MP-470, in combinations with Tarceva® and Gleevec®, for 48 hours. Following incubation, cells were lysed and total protein subjected to immunoblot analysis for total Akt and phospho-Akt (S473).

Structure (SMILES) | IC50 (PANC-1 cells) [µM] | IC50 (MIAPaCa-2 cells) [µM] | IC50 (GIST882 cell line [1]) [µM] | IC50 (GIST882 cell line [2]) [µM] | other results
COc1cc2ncnc(Nc3ncc(NC(=S)NCc4ccc5c(c4)OCO5)cn3)c2cc1OC [AKS110, 1-Benzo[1,3]dioxol-5-yl methyl-3-[2-(6,7-dimethoxy-quinazolin-4ylamino)-pyrimidin-5yl]-thiourea] |  |  |  |  | IC50 (aurora-2 kinase): 36 µM
S=C(NCc1ccc2c(c1)OCO2)N1CCN(c2ncnc3c2sc2ncccc23)CC1 [HPK57, 4-(9-Thia-1,5,7-triaza-fluoren-8-yl)-piperazine-1-carbothioic acid (benzo[1,3]dioxol-5-ylmethyl)-amide] | > 50 | > 50 | 28 | 28 | 
O=S(=O)(Nc1ncccn1)c1ccc(NC(=S)N2CCN(c3ncnc4c3oc3ccccc34)CC2)cc1 [HPK59, 4-Benzo[4,5]furo[3,2-d]pyrimidin-4-yl-piperazine-1-carbothioic acid [4-(pyrimidin-2-ylsulfamoyl)-phenyl]-amide] |  |  | 27.5 | 27.5 | 
O=S(=O)(Nc1ncccn1)c1ccc(NC(=S)N2CCN(c3ncnc4c3sc3ncccc34)CC2)cc1 [HPK60, 4-(9-Thia-1,5,7-triaza-fluoren-8-yl)-piperazine-1-carbothioic acid [4-(pyrimidin-2-ylsulfamoyl)-phenyl]-amide] | > 50 | > 50 | 50 | 50 | 
Cc1ccc(NC(=O)c2ccc(CN3CCN(C)CC3)cc2)cc1Nc1nccc(-c2cccnc2)n1 [STI571] |  |  |  |  | partial response (metastatic GISTs): 54%; progressive disease (metastatic GISTs): 12%; stable disease (metastatic GISTs): 34%; cells alive at day 4 (GIST882 cell line [2]; GIST882, day 4): 25%
C#Cc1cccc(Nc2ncnc3cc(OCCOC)c(OCCOC)cc23)c1 [Tarceva®, reference compound] |  |  |  |  | phosphorylation of Akt [3]: Neither of these effects was observed; activating autophosphorylation of c-Met [4]: Neither of these effects was observed; phosphorylation of Akt [5]: did not appear to have an effect
